pIC50: −log10 of the molar value.
Key:
activated p38 = activated p38 (Homo sapiens, UniProt Q16539); assay: Inhibition of phosphorylation of EGF receptor peptide ("kinase"); format: biochemical; conditions: inhibition of phosphorylation of EGF receptor peptide by activated p38
How it was run: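 Activated p38 was preincubated with inhibitor for 15 min at room temperature in 100 mM HEPES pH 7.6, 10 mM MgCl2, 25 mM β-glycerophosphate, 10% glycerol, 5% DMSO final. Reaction used 200 μM EGF receptor peptide and 100 μM ATP for 30 min at 30° C. TFA-quenched phosphopeptide was quantified by reverse-phase HPLC.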

[1] = tested on: IL-1 production in LPS-stimulated PBMCs; assay: Inhibition of IL-1 production in LPS-stimulated PBMCs ("cell"); format: cell-based, human; conditions: Homo sapiens, PBMC
How it was run: (§1)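 Human PBMCs (4.8×10^6 cells/ml, RPMI1640/10% FBS) pre-treated with inhibitor dilutions, then stimulated with 4 ng/ml LPS final and incubated overnight (12–15 h) at 37 °C/5% CO2. Supernatant IL-1β and TNF-α measured by ELISA; IC50 from dose-response curves.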

[2] = tested on: TNF production in LPS-stimulated PBMCs; assay: Inhibition of TNF production in LPS-stimulated PBMCs ("cell"); format: cell-based, human; conditions: Homo sapiens, PBMC
How it was run: as §1

[3] = tested on: IL-1 production in whole blood; assay: Inhibition of IL-1 production in LPS-stimulated whole blood ("WB"); format: cell-based, human; conditions: Homo sapiens
Procedure: (§2) Inhibitors were serially diluted in DMSO from a 20 mM stock. At least 6 serial dilutions were prepared. Then 4× inhibitor stocks were prepared by adding 4 μl of an inhibitor dilution to 1 ml of RPMI1640 medium/10% fetal bovine serum. The 4× inhibitor stocks contained inhibitor at concentrations of 80 μM, 32 μM, 12.8 μM, 5.12 μM, 2.048 μM, 0.819 μM, 0.328 μM, 0.131 μM, 0.052 μM, 0.021 μM etc. The 4× inhibitor stocks were pre-warmed at 37° C. until use.
(§3) Alternatively, whole blood containing an anti-coagulant was used directly in the assay.
(§4) We placed 100 μl of cell suspension or whole blood in each well of a 96-well cell culture plate. Then we added 50 μl of the 4× inhibitor stock to the cells. Finally, we added 50 μl of a lipopolysaccharide (LPS) working stock solution (16 ng/ml in cell culture medium) to give a final concentration of 4 ng/ml LPS in the assay. The total assay volume of the vehicle control was also adjusted to 200 μl by adding 50 μl cell culture medium. The PBMC cells or whole blood were then incubated overnight (for 12–15 hours) at 37° C./5% CO2 in a humidified atmosphere.
(§5) The next day the cells were mixed on a shaker for 3–5 minutes before centrifugation at 500×g for 5 minutes. Cell culture supernatants were harvested and analyzed by ELISA for levels of IL-1b (R & D Systems, Quantikine kits, #DBL50), TNF-α (BioSource, #KHC3012), IL-6 (Endogen, #EH2-IL6) and IL-8 (Endogen, #EH2-IL8) according to the instructions of the manufacturer. The ELISA data were used to generate dose-response curves from which IC50 values were derived.

[4] = tested on: TNF production in whole blood; assay: Inhibition of TNF production in LPS-stimulated whole blood ("WB"); format: cell-based, human; conditions: Homo sapiens
Procedure: as §2, §3, §4, §5

[5] = tested on: IL-6 production in whole blood; assay: Inhibition of IL-6 production in LPS-stimulated whole blood ("WB"); format: cell-based, human; conditions: Homo sapiens
Procedure: as §2, §3, §4, §5

activated p38, sequence (Q16539 whole entry): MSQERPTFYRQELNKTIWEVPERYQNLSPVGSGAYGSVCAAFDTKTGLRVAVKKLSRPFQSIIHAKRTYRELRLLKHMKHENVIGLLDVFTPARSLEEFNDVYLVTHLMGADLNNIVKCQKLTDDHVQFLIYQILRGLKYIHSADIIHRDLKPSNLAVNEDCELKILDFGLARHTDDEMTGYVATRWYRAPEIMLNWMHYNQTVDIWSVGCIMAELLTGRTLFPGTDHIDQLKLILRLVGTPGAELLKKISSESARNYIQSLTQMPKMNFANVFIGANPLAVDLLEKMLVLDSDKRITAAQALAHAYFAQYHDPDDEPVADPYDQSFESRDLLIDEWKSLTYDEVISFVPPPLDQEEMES

Row | SMILES | pIC50 (activated p38) | pIC50 [1] | pIC50 [2] | pIC50 [3] | pIC50 [4] | pIC50 [5]
1 | NC(=O)C(c1cccc(-c2ccccc2)n1)c1c(Cl)cccc1Cl (stereo not drawn) [202/301] | ≥ 7.00 | 6.30 to 7.00 | 6.30 to 7.00 | ≤ 6.30 | ≤ 6.30 | ≤ 6.30
2 | COc1ccc(-c2c(=O)ncn3nc(Sc4ccc(F)cc4)ccc23)c(Cl)c1OC [Compound 36] | ≤ 6.00 | ≤ 6.30 | ≤ 6.30 | ≤ 6.30 | ≤ 6.30 | ≤ 6.30
3 | NC(=O)N(c1cccc(-c2ccccc2)n1)c1c(Cl)cccc1Cl [Compound 401] | ≥ 7.00 | 6.30 to 7.00 | 6.30 to 7.00 | ≤ 6.30 | ≤ 6.30 | ≤ 6.30
4 | NC(=O)C(c1cccc(-c2ccc(F)cc2)n1)c1c(F)cccc1Cl (stereo not drawn) [Compound 329] | 6.00 to 7.00 | 6.30 to 7.00 | ≤ 6.30 | ≤ 6.30 | ≤ 6.30 | ≤ 6.30
5 | NC(=O)C(c1cccc(-c2cccc3ccccc23)n1)c1c(Cl)cccc1Cl (stereo not drawn) [Compound 362] | ≥ 7.00 | 6.30 to 7.00 | 6.30 to 7.00 | ≤ 6.30 | ≤ 6.30 | ≤ 6.30
6 | Cc1cccc(-c2cccc(C(C(N)=O)c3c(Cl)cccc3Cl)n2)c1 (stereo not drawn) [Compound 312] | ≥ 7.00 | 6.30 to 7.00 | ≤ 6.30 | ≤ 6.30 | ≤ 6.30 | ≤ 6.30
7 | Nc1cc(F)ccc1Sc1ccc2c(-c3c(Cl)cccc3Cl)c(=O)ncn2n1 [Compound 35] | 6.00 to 7.00 | 6.30 to 7.00 | ≤ 6.30 | ≤ 6.30 | ≤ 6.30 | ≤ 6.30
8 | Cc1cc(F)ccc1-c1cccc(N(C(N)=O)c2c(Cl)cccc2Cl)n1 [Compound 409] | ≥ 7.00 | ≥ 7.00 | ≥ 7.00 | ≤ 6.30 | ≤ 6.30 | 6.30 to 6.60
9 | Cc1ccccc1SC1=NN2CNC(=O)C(c3c(Cl)cccc3Cl)=C2C=C1 [Compound 102] | ≥ 7.00 | ≥ 7.00 | ≥ 7.00 | ≤ 6.30 | 6.30 to 6.60 | 6.30 to 6.60
10 | Nc1ccc(C2=C3C=CC(Sc4ccc(F)cc4)=NN3CNC2=O)c(Cl)c1 [Compound 137] | ≥ 7.00 | ≥ 7.00 | 6.30 to 7.00 | ≤ 6.30 | ≤ 6.30 | 6.30 to 6.60
11 | CC(=O)Nc1ccc(C2=C3C=CC(Sc4ccc(F)cc4)=NN3CNC2=O)c(Cl)c1 [Compound 143] | ≥ 7.00 | ≥ 7.00 | 6.30 to 7.00 | ≤ 6.30 | ≤ 6.30 | ≤ 6.30
12 | NCc1ccccc1SC1=NN2CNC(=O)C(c3c(Cl)cccc3Cl)=C2C=C1 [Compound 118] | 6.00 to 7.00 | 6.30 to 7.00 | 6.30 to 7.00 | ≤ 6.30 | ≤ 6.30 | ≤ 6.30
13 | Cc1cc(F)ccc1-c1cccc(C(C(N)=O)c2c(Cl)cc(N)cc2Cl)n1 (stereo not drawn) [Compound 364] | ≥ 7.00 | ≥ 7.00 | 6.30 to 7.00 | ≤ 6.30 | ≤ 6.30 | ≤ 6.30
14 | NC(=O)C(c1cccc(-c2ccccc2CN2CCNCC2)n1)c1c(Cl)cccc1Cl (stereo not drawn) [Compound 304] | ≤ 6.00 | ≤ 6.30 | ≤ 6.30 | ≤ 6.30 | ≤ 6.30 | ≤ 6.30
15 | O=C(CN1CCOCC1)Nc1ccc(C2=C3C=CC(Sc4ccc(F)cc4)=NN3CNC2=O)c(Cl)c1 [Compound 144] | ≥ 7.00 | ≥ 7.00 | 6.30 to 7.00 | ≤ 6.30 | ≤ 6.30 | 6.30 to 6.60

Source: US7205305B2, “Inhibitors of p38” (Vertex Pharmaceuticals Incorporated, priority 1996, dated 2007)
